Assay results published in patent US12582721B2, “Molybdenum-based feed supplement for bees” (UNIVERSITE DE VERSAILLES—SAINT-QUENTIN-EN-YVELINES, priority 2020, dated 2026).
Entries after “also recorded” stand apart in the source; their conditions may differ.

Experiments:
[1] = system: HeLa, BxPC-3 and MDCK cells; conditions: BxPc-3 and HeLa
Text: (§1) For cell culture, human cervical epithelial cells of the HeLa line, human epithelial pancreatic adenocarcinoma cells of the BxPC-3 line and healthy Madin-Darby canine kidney epithelial cells of the MDCK line were used in this study. The Resazurin cell proliferation test was applied according to the literature (S. Anoopkumar-Dukie, J. B. Carey, T. Conere, E. O'Sullivan, F. N. van Pelt, A. Allshire, Br J Radiol 2005, 78, 945, DOI: 10.1259/bjr/54004230). As an indicator of the effectiveness of the experimental compounds on cell proliferation, the median inhibitory concentration (IC50) was used. The lower the IC50 value, the higher the activity (in this case, the cytotoxicity).

[2] = system: human epithelial pancreatic adenocarcinoma cells of the BxPC-3 line; assay: Resazurin cell proliferation test, BxPC-3 cells; format: cell-based; conditions: pancreatic cancer cells; IC50 equal to and greater than 100 μM considered no activity
Text: as §1
(§2) Five formula I complexes were tested in this study in comparison to two reference anti-cancer compounds (“Cisplatin” and Doxorubicin complex).

bees = assay: Toxicity study on bees (lifespan of caged bees); format: in vivo
Protocol: Fifty newly hatched bees (age=1 day) were placed in a special cage with a wax strip, water and food, and were kept in the laboratory oven at a constant temperature of 33° C. and 50% humidity. […] The consumption of water and food was checked every day. Dead bees were counted and removed. For statistical reasons, the experiments were repeated up to 3 times if necessary.

[3] = system: healthy Madin-Darby canine kidney epithelial cells of the MDCK line; assay: Resazurin cell proliferation test, MDCK cells; format: cell-based; conditions: healthy cells; IC50 equal to and greater than 100 μM considered no activity
Text: as §1, §2

Varroa destructor = assay: 2nd test in the hives: degree of larvae infestation with Varroa; format: in vivo; conditions: for Degree of larvae infestation with Varroa: 100 = larvae infestation rate of 28.2%; for Degree of larvae infestation with Varroa, change versus batch I: value in brackets
Protocol: The 2nd test was performed in the same apiary the following year. Feeding with the complex of the invention took place in spring. The biological tests were monitored up to the month of September. The molecules tested, their concentration in solution and their annual overall doses are listed below: • 1. […] The concentration of the complex in syrup: 1.5×10^-7 mol/L. Overall product dose: 2 mg/colony • 2. […] Overall complex dose: 6 mg/colony • 4. LiCH3COO·H2O for comparison, abbreviated as Li-Ac • The feeding is carried out with 2000 g of candy containing 0.8 mg of product then 6 to 7 L of syrup containing 0.2 mg/L of product. The concentration of product in the syrup: 2.36×10^-6 mol/L that is 1.67×10^-5 g/L. Overall product dose: 2 mg/colony [table]

bee families = conditions: feeding method of MD4438; cited from earlier work
bee colonies [4] = assay: 3rd test in the hives: winter mortality of colonies, California 2019; format: in vivo, bees; conditions: single dose 4 mg per hive, 25-28 Oct. 2019, counted Jan. 7, 2020; 26 of 75 lost; control hives 61.8%
Protocol: A treatment campaign was carried out in the autumn-winter in apiaries located in California, near San Francisco. This region is particularly vulnerable to winter mortality of bee colonies which can reach as high as 80% in some years.
151 hives, distributed over 6 different apiaries in California to the south of San Francisco were selected. The bees were of different types: Wildflower (VSH-Italian), Beeweaver, Carniolan Californian Bee (Pope Canyon), Californian bee Tom and Italian Californian bee (Sam).
The hives were Langstroth 2 body type hives (15 frames compared to 10 for Dadant hives in Europe).
2019 by syringe in the form of a concentrated aqueous solution (8 g/L) in a sugar syrup into the feeding frame. 0.5 mL of this solution was introduced and dispersed in 3.5 liters of sugar syrup at 65% sugar and introduced into the hive. […] The control hives only received sugar syrup.
The surviving colonies were counted on Jan. 7, 2020. A total of 73 colonies out of the initial 151 died, that is an overall mortality of 48.3%.

bee colonies [5] = assay: 4th test in the hives: winter mortality of colonies, California 2020; format: in vivo, bees; conditions: counted Dec. 31, 2020, 55 hives, Batch 1 27.3%
Protocol: A second treatment campaign was carried out in the autumn-winter 2020 in apiaries located in California, near San Francisco. This region is particularly vulnerable to winter mortality of bee colonies which can reach as high as 80% in some years.
220 hives distributed over 13 different apiaries in California to the south of San Francisco were selected. Each apiary comprised between 8 and 24 hives. The bees were of different types: 165 hives of Wildflower bees (VSH-Italian) and 55 hives of Beeweaver bees (VSH-Carniolan).
The hives were Langstroth 2 body type hives (15 frames compared to 10 for Dadant hives in Europe). […] 20, 2020 and Oct. 12, 2020.
1 apiary only contained Wildflower type bees. 2 apiaries only contained Beeweaver type bees. The other 10 apiaries comprised Wildflower and Beeweaver bees that were evenly distributed between the 4 batches.
The product Li—Mo2O4-EDTA was introduced on Sep. 20, 2020, and/or on Oct. 12, 2020 by syringe in the form of a concentrated aqueous solution (0.8 g/L) in a sugar syrup into the frame feeder. 10 mL of this solution were introduced and dispersed in 3.5 liters of sugar syrup at 65% sugar and introduced into the hive. […] The control hives only received sugar syrup.
The dead colonies were counted on Dec. 31, 2020. A total of 28 colonies were dead on 31 Dec. 2020, that is 12.73% of the total. The mortality rate is identical for Wildflower bees (21/165) and Beeweaver bees (7/55). The mortality per batch is distributed as follows: • Batch 1: 15 hives/55 hives, that is 27.3% losses • Batch 2: 0 hive/55 hives, that is 0% losses • Batch 3: 10 hives/55 hives, that is 18.2% losses • Batch 4: 3 hives/55 hives, that is 5.5% losses.

| Compound | Cytotoxicity, conclusion from Table 1 [1] | IC50, BxPc-3 [2] | Survival of caged bees versus control group (bees; 2 mg/L in sucrose solution, p>0.05, χ2=3.36) | Survival of caged bees versus control group (bees; 20 mg/L in sucrose solution, p>0.05, χ2=0.04) | IC50, MDCK [3] | IC50 [2] [µM] | Degree of larvae infestation with Varroa (Varroa destructor; overall dose 2 mg/hive) | Degree of larvae infestation with Varroa, change versus batch I (Varroa destructor; overall dose 2 mg/hive) [%] | Effect on queens and bee families (bee families) | IC50 [3] [µM] | Winter mortality of colonies (bee colonies [4]) [%] | Degree of larvae infestation with Varroa (Varroa destructor; overall dose 6 mg/hive) | Degree of larvae infestation with Varroa, change versus batch I (Varroa destructor; overall dose 6 mg/hive) [%] | Mortality of colonies (losses) (bee colonies [5]; Batch 2: fed on Sep. 20, 2020, 8 mg) [%] | Mortality of colonies (losses) (bee colonies [5]; Batch 3: fed on Oct. 12, 2020, 8 mg) [%] | Mortality of colonies (losses) (bee colonies [5]; Batch 4: fed on Sep. 20, 2020 and Oct. 12, 2020) [%] |
| --- | --- | --- | --- | --- | --- | --- | --- | --- | --- | --- | --- | --- | --- | --- | --- | --- |
| O.O.O.O.O.O=C([O-])CN(CCN(CC(=O)[O-])CC(=O)[O-])CC(=O)[O-].[Na+].[Na+].[O]=[Mo+]12[O][Mo+]1(=[O])[O]2 [Na—Mo2O4-EDTA, Na2[Mo2O4 (EDTA)]·5H2O] | no cytotoxicity | Inactive | no significant difference; also recorded: does not induce bee mortality | no significant difference; also recorded: does not induce bee mortality | Inactive |  |  |  |  |  |  |  |  |  |  |  |
| O=C([O-])CN(CCN(CC(=O)[O-])CC(=O)[O-])CC(=O)[O-].[O]=[Mo+]12[O][Mo+]1(=[O])[O]2.c1ccc([P+](c2ccccc2)(c2ccccc2)c2ccccc2)cc1.c1ccc([P+](c2ccccc2)(c2ccccc2)c2ccccc2)cc1 [PPh4—Mo2O4-EDTA, (PPh4)2[Mo2O4 (EDTA)]·2.5H2O] |  |  |  |  |  | 25.1 ± 7.02 | 56.0 % relative to batch I | −44.0 | stimulating the oogenesis functions of the queens, increasing the amount of larvae, improving the quantitative development of the bee families and increasing productivity thereof | 60.7 ± 12.1 |  |  |  |  |  |  |
| CC(=O)[O-].[Li+] [Li—Ac, LiCH3COO·H2O, reference compound] |  |  |  |  |  |  | 64.9 % relative to batch I | −35.1 |  |  |  |  |  |  |  |  |
| O.O.O.O.O.O.O=C([O-])CN(CCN(CC(=O)[O-])CC(=O)[O-])CC(=O)[O-].[Li+].[Li+].[O]=[Mo+]12[O][Mo+]1(=[O])[O]2 [Li—Mo2O4-EDTA, Li2[Mo2O4 (EDTA)]·6H2O] | no cytotoxicity | Inactive |  |  | Inactive |  | 42.6 % relative to batch I | −57.4 |  |  | 34.7 | 18.4 % relative to batch I | −81.6 | 0 | 18.2 | 5.5 |
